Assay results published in patent publication US5593678A, “Protection of teleost fish” (University of Georgia Research Foundation, priority 1994, dated 1997).
Where two headings read alike, the source gives them in different places.

Tests used:
[1] = system: NCC from stressed fish (lysis of IM-9 target cells); conditions: for Percent Specific Release (stressed fish): 100:1, control 0.9
Protocol: (§1) A ^51 Cr release assay was used to determine cytotoxicity. Target cells at 1-2×10^6 cells/ml were labeled with 100 μCi of sodium chromate (Amersham, Arlington Heights, Ill.). NCC effector cells were treated as previously described [Evans et al. (1988) supra], centrifuged (500 g), and resuspended in media and added at different E:T ratios to the labeled target cells in round-bottomed 96-well microtiter plates. This mixture was incubated (25° C.) for 4-6 hours and 100 μl of each supernatant was removed to determine radioactivity (Beckman Biogamma II Counter; Beckman Instruments, Irvine, Calif.). The results are expressed as either percentage specific release (SR)=[(test release--spontaneous release)/(total release--spontaneous release)]×100; percent inhibition=[(percentage control SR--percentage test SR)/percentage control SR]×100; and percentage increase=(percentage test SR--percentage control SR)/percentage control SR.
A common observation in fish exposed to stress, e.g., toxicants, drastic temperature changes, handling, etc., is the temporary loss of NCC activity.

[2] = system: IM-9 target cells
Protocol: In further studies, NCC were treated with different concentrations of protein phosphatase inhibitors for two hours and labeled IM-9 target cells were added for a four-hour microcytotoxicity assay (Table 8). […] To determine if the activating effects of the protein phosphatase inhibitors were reversible, NCC were treated for 90 minutes with NaF and vanadate and then the inhibitors were removed prior to addition of the labeled target cells.

[3] = system: phosphotidylinositol phosphate phosphatase; conditions: cited from earlier work
[4] = system: NCC (lysis of IM-9 target cells); conditions: for Percentage of control (NCC cytotoxic activity): 120 minutes; for effect of removal of inhibitor on NCC activation (words): 90 minutes treatment, washed, E:T 40:1
Protocol: FIG. 4. Individual and combined effects of phosphatase inhibitors on NCC cytotoxicity, NCC (7×10^5 cells) were incubated with either media (.diamond.), vanadate (Δ) (5 mM). NaF (.smallcircle.) (20 mM), or both vanadate and NaF (.quadrature.) for the indicated time periods before addition to labeled IM-9 target cells.
FIG. 5. Effects of removal of Na3 VO4 on NCC activation. NCC were harvested, incubated for three hours, washed, counted and added to duplicate tubes containing either media alone or media containing 2.5, 5 and 10 mM vanadate. Following a 90 minutes incubation time, the cells were either washed and resuspended in media (closed circles) or added directly (open circles) to wells containing ^51 chromium labeled IM-9 target cells (E:T ratio 40:1).
FIG. 6. Effects of removal of NaF on NCC activation. NCC were harvested, incubated for three hours in media, washed, counted and added to duplicate tubes containing media alone or in the presence of 5, 10 and 20 mM NaF. Following a 90 minutes treatment time, NCC were either washed (closed circles) or added directly (open circles) to wells containing labeled IM-9 target cells (E:t ratio 40:1).
FIG. 7. Effects of Na3 VO4 on NCC with different levels of cytotoxicity. NCC were harvested from anterior kidneys of fish from three different sources. The cells were incubated in media for three hours, washed, counted and added to test tubes containing either media alone or media with 2.5, 5 and 10 mM vanadate. Following a two hours incubation time, the effectors were added to wells containing labeled IM-9 cells at a 40:1 E:T ratio.
FIG. 8. Effects of NaF on NCC with different levels of cytotoxicity. NCC were harvested from anterior kidneys of fish from three different sources. The cells were incubated in media for three hours, washed, counted and added to media or media with 5, 10 and 20 mM NaF. Following a two-hour incubation, NCC were added to wells containing ^51 chromium labeled IM-9 target cells for a final E:T ratio of 40:1.
as §1
NCC were obtained as previously described [Graves et al. (1984) supra]; Evans et al. (1984) supra]. […] NCC were then washed and resuspended at 20×10^6 cells/ml, and 35 μl aliquots were added to test tubes containing 315 μl media only (media control) or media containing the indicated treatments. After 2 hr incubation, the cells were mixed with ^51 Cr-labeled IM-9 target cells and incubated for 4-6 hours ([…]). Supernatants were harvested and cytotoxicity levels were calculated as previously described.
Membrane phosphorylation is maintained through a delicate equilibrium between cellular kinase and phosphatase activities.
In further studies, NCC were treated with different concentrations of protein phosphatase inhibitors for two hours and labeled IM-9 target cells were added for a four-hour microcytotoxicity assay (Table 8).

[5] = system: CRC cells; test: Lytic activity of CRC cells (rat leukemic NK cells); format: cell-based, rat (F344)
From the text: The present invention relates to the relevance of protein phosphatase inhibitors to the protection of other species and other types of natural killer cells. For example, the CRC cells (tissue cultured cells obtained from peripheral blood of leukemic F344 rats) are perhaps more interesting (e.g., another model to study the effects of vanadate on altering immunosuppressed NK function) because these are in vitro maintained rat leukemic NK cells which have spontaneously lost cytotoxicity against YAC-1 target cells. […] It is possible that the discovery of this activity of protein phosphatase inhibitors may have widespread importance for studies of mechanisms of signaling in all vertebrates. Additionally, these inhibitors may have clinical importance in circumstances of immunosuppression, immunodeficiency and other conditions of altered immune activity.

[6] = system: NCC; conditions: relatively high concentrations
[7] = system: protein phosphatase; conditions: cited from earlier work
[8] = system: human prostate gland phosphotyrosyl protein phosphatase; conditions: cited from earlier work
[9] = system: calcineurin; conditions: cited from earlier work

[Cl-].[Li+] [Lithium chloride, lithium chloride]
effect on cytotoxicity, stressed fish [1]: no effects on cytotoxicity | toxicity to labeled IM-9 targets [2]: not toxic | phosphotidylinositol phosphate phosphatase activity [3]: specifically inhibited

[F-].[Na+] [Sodium fluoride, sodium fluoride]
cytotoxicity in presence of inhibitor, normal NCC [4]: significant increased cytotoxicity | effect on NCC cytotoxicity [4]: activated the cytotoxicity of NCC | Percentage of control (NCC cytotoxic activity) ([4]; 5 mM, E:T 25:1): 210.3% | Percentage of control (NCC cytotoxic activity) ([4]; 5 mM, E:T 50:1): 136.9% | Percentage of control (NCC cytotoxic activity) ([4]; 5 mM, E:T 100:1): 123.2% | Percent Specific Release ([4]; 5 mM, E:T 10, media 39): 48% | Percent Specific Release ([4]; 5 mM, E:T 25, media 4): 9% | Percent Specific Release ([4]; 5 mM, E:T 50, media 21): 29% | Percentage of control (NCC cytotoxic activity) ([4]; 10 mM, E:T 25:1): 333.3% | Percentage of control (NCC cytotoxic activity) ([4]; 10 mM, E:T 50:1): 183.9% | Percentage of control (NCC cytotoxic activity) ([4]; 10 mM, E:T 100:1): 153.7% | Percent Specific Release ([4]; 10 mM, E:T 10, media 39): 60% | Percent Specific Release ([4]; 10 mM, E:T 25, media 4): 14% | Percent Specific Release ([4]; 10 mM, E:T 50, media 21): 39% | Percentage of control (NCC cytotoxic activity) ([4]; 20 mM, E:T 25:1): 635.3% | Percentage of control (NCC cytotoxic activity) ([4]; 20 mM, E:T 100:1): 157.3% | Percent Specific Release ([4]; 20 mM, E:T 10, media 39): 61% | Percent Specific Release ([4]; 20 mM, E:T 25, media 4): 28% | Percent Specific Release ([4]; 20 mM, E:T 50, media 21): 49% | effect of removal of inhibitor on NCC activation (words) ([4]; listed as NaF): almost completely obliterated activation | effect of removal of inhibitor on NCC activation (words) ([4]; listed as fluoride): almost completely obliterated NCC activation | effect of removal of inhibitor on NCC activation (words) ([4]; listed as sodium fluoride): lost | Percent Specific Release (stressed fish) ([1]; NaF 5 mM): 1.4% | Percent Specific Release (stressed fish) ([1]; NaF 10 mM): 4.4% | Percent Specific Release (stressed fish) ([1]; NaF 20 mM): 22.0% | toxicity to labeled IM-9 targets ([2]; 20 mM): not toxic | increase in the lytic activity of CRC cells [5]: 3 -fold | toxicity to NCC [6]: not toxic to NCC | protein phosphatase activity [7]: vanadate but not fluoride inhibited protein phosphatase activity | human prostate gland phosphotyrosyl protein phosphatase [8]: fluoride, but not vanadate inhibited human prostate gland phosphotyrosyl protein phosphatase | calcineurin-mediated dephosphorylation [9]: fluoride, but not vanadate inhibited
